Data from patent US9365522B2, “Pyrazole amide derivative” (AMGEN INC., priority 2015, dated 2016).

Biological target: T1, human RORγ-LBD (Homo sapiens, UniProt P51449)
T1 construct: made in house; host or cells: E. coli (BL-21)
T1 sequence (P51449 262-518): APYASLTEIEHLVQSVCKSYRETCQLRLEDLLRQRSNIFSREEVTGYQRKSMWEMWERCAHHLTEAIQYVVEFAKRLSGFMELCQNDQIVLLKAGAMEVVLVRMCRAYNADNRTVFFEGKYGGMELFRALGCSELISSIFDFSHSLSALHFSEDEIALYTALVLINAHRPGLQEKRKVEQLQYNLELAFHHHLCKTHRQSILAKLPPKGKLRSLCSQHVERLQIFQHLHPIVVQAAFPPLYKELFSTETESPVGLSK
Assay: ROR gamma coactivator peptide recruitment Alphascreen assay (RORγ-LBD binding to GRIP1 coactivator peptide)
Format: biochemical
Details: 5 nM human RORγ-LBD, 30 nM 7-β-hydroxycholesterol, 50 nM biotinylated GRIP1 coactivator peptide, overnight incubation at room temperature; read-out: result (pIC50, RORγ coactivator peptide recruitment Alphascreen assay) (converted)
How it was run: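 Alphascreen proximity read-out after overnight room-temperature incubation, yielding pIC50 from 1-in-2 compound series (2.5% DMSO final). Mixture: 50 nM biotin-GRIP1 peptide, 30 nM 7-β-hydroxycholesterol agonist, 5 nM recombinant 6×His:Flag human RORγ-LBD (aa 262-518), 50 mM HEPES pH 7.4.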

IC50 [nM]	SMILES
240	C[C@]1(C(=O)O)CC[C@H](n2ncc(C(=O)N(C[C@H](O)c3c(Cl)cncc3Cl)CC3(F)CC3)c2C(F)(F)F)CC1 [Example 840, trans-4-(4-(((2R)-2-(3,5-dichloro-4-pyridinyl)-2-hydroxyethyl)((1-fluorocyclopropyl)methyl)carbamoyl)-5-(trifluoromethyl)-1H-pyrazol-1-yl)-1-methylcyclohexanecarboxylic acid]
302	CC(C)(C)CN(CCc1c(Cl)cn2ncnc2c1Cl)C(=O)c1cnn([C@H]2CC[C@](C)(C(=O)O)CC2)c1C(F)(F)F [Example 892, trans-4-(4-((2-(6,8-dichloro[1,2,4]triazolo[1,5-a]pyridin-7-yl)ethyl)(2,2-dimethylpropyl)carbamoyl)-5-(trifluoromethyl)-1H-pyrazol-1-yl)-1-methylcyclohexanecarboxylic acid]
28.8	CC1(CN(CC(=O)c2c(Cl)cncc2Cl)C(=O)c2cnn([C@@H]3CC[C@@H](C(=O)O)C(C)(C)C3)c2C(F)(F)F)CCC1 [Example 824, (1R,4R)-4-(4-((2-(3,5-dichloro-4-pyridinyl)-2-oxoethyl)((1-methylcyclobutyl)methyl)carbamoyl)-5-(trifluoromethyl)-1H-pyrazol-1-yl)-2,2-dimethylcyclohexanecarboxylic acid]
6.17	CC(C)(C)CN(CC(=O)c1c(Cl)cncc1Cl)C(=O)c1cnn([C@H]2CC[C@@]3(C(=O)O)CCC[C@H]3C2)c1C(F)(F)F [Example 876, (3aS,6S,7aS )-6-(4-((2-(3,5-dichloropyridin-4-yl)-2-oxoethyl)(neopentyl)carbamoyl)-5-(trifluoromethyl)-1H-pyrazol-1-yl)octahydro-1H-indene-3a-carboxylic acid]
5.25	C[C@H]1C[C@@H](n2ncc(C(=O)N(CC(=O)c3c(Cl)cncc3Cl)CC(C)(C)C)c2C(F)(F)F)CC[C@]1(C)C(=O)O [Example 873, (1S,2S,4S)-4-(4-((2-(3,5-dichloro-4-pyridinyl)-2-oxoethyl)(2,2-dimethylpropyl)carbamoyl)-5-(trifluoromethyl)-1H-pyrazol-1-yl)-1,2-dimethylcyclohexanecarboxylic acid]
3.72	CC(C)(C)CN(CC(=O)c1c(Cl)cncc1Cl)C(=O)c1cnn([C@H]2C[C@]3(C[C@H](C(=O)O)C3)C2)c1C(F)(F)F (single isomer, unassigned) [Example 837]
24.5	C[C@@H]1C[C@H](n2ncc(C(=O)N(CC(=O)c3c(Cl)cncc3Cl)C[C@]34CC[C@H](CC3)O4)c2C(F)(F)F)CC[C@H]1C(=O)O [Example 867, (1S,2S,4S)-4-(4-((2-(3,5-dichloro-4-pyridinyl)-2-oxoethyl)((1s,4s)-7-oxabicyclo[2.2.1]hept-1-ylmethyl)carbamoyl)-5-(trifluoromethyl)-1H-pyrazol-1-yl)-2-methylcyclohexanecarboxylic acid]
67.6	C[C@H]1C[C@@](C)(C(=O)O)CC[C@H]1n1ncc(C(=O)N(CC(=O)c2c(Cl)cncc2Cl)CC(C)(C)C)c1C(F)(F)F [Example 856, (1S,3S,4R)-4-(4-((2-(3,5-dichloro-4-pyridinyl)-2-oxoethyl)(2,2-dimethylpropyl)carbamoyl)-5-(trifluoromethyl)-1H-pyrazol-1-yl)-1,3-dimethylcyclohexanecarboxylic acid]

Second part, the compound before the results:

SMILES	IC50 [nM]
C[C@]1(C(=O)O)CC[C@H](n2ncc(C(=O)N(CC(=O)c3c(Cl)cncc3Cl)C3CC4(CCC4)C3)c2C(F)(F)F)CC1 [Example 633, trans-4-(4-((2-(3,5-dichloro-4-pyridinyl)-2-oxoethyl)(spiro[3.3]hept-2-yl)carbamoyl)-5-(trifluoromethyl)-1H-pyrazol-1-yl)-1-methylcyclohexanecarboxylic acid]	8.13
CC(C)(C)CN(CC(=O)c1c(Cl)cncc1Cl)C(=O)c1cnn([C@@H]2CCCC[C@H]2CC(=O)O)c1C(F)(F)F [Example 659, ((1S,2R)-2-(4-((2-(3,5-dichloro-4-pyridinyl)-2-oxoethyl)(2,2-dimethylpropyl)carbamoyl)-5-(trifluoromethyl)-1H-pyrazol-1-yl)cyclohexyl)acetic acid]	331
Cc1cc(Cl)c(C(=O)CN(C[C@@]2(C)CCCO2)C(=O)c2cnn([C@H]3CC[C@](C)(C(=O)O)CC3)c2C(F)(F)F)c(Cl)c1 [Example 726, trans-4-(4-((2-(2,6-dichloro-4-methylphenyl)-2-oxoethyl)(((2R)-2-methyltetrahydro-2-furanyl)methyl)carbamoyl)-5-(trifluoromethyl)-1H-pyrazol-1-yl)-1-methylcyclohexanecarboxylic acid]	2.75
C[C@]1(C(=O)O)CC[C@H](n2ncc(C(=O)N(CC(=O)c3c(Cl)cncc3Cl)CC3CC3)c2C(F)(F)F)CC1 [Example 710, trans-4-(4-((cyclopropylmethyl) (2-(3,5-dichloro-4-pyridinyl)-2-oxoethyl)carbamoyl)-5-(trifluoromethyl)-1H-pyrazol-1-yl)-1-methylcyclohexanecarboxylic acid]	27.5
Cc1cc(Cl)c(C(=O)CN(CC2(F)CCCC2)C(=O)c2cnn([C@H]3CC[C@@H](C(=O)O)CC3)c2C(F)(F)F)c(Cl)c1 [Example 631, cis-4-(4-((2-(2,6-dichloro-4-methylphenyl)-2-oxoethyl)((1-fluorocyclopentyl)methyl)carbamoyl)-5-(trifluoromethyl)-1H-pyrazol-1-yl)cyclohexanecarboxylic acid]	10
CC1(C)CC[C@H]1N(CC(=O)c1c(Cl)cccc1Cl)C(=O)c1cnn([C@H]2CC[C@](C)(C(=O)O)CC2)c1C(F)(F)F [Example 619]	7.76
Cc1cc(Cl)c(C(=O)CN(CC(C)(C)C)C(=O)c2cnn([C@H]3CC[C@H](C(=O)O)CC3)c2C(F)(F)F)c(Cl)c1 [Example 517, trans-4-(4-((2-(2,6-dichloro-4-methylphenyl)-2-oxoethyl)(2,2-dimethylpropyl)carbamoyl)-5-(trifluoromethyl)-1H-pyrazol-1-yl)cyclohexanecarboxylic acid]	25.1
CO[C@H](CN(CC(C)(C)C)C(=O)c1cnn([C@H]2CC[C@H](C(=O)O)CC2)c1C(F)(F)F)c1c(Cl)cc(C)cc1Cl [Example 530, trans-4-(4-(((2S)-2-(2,6-dichloro-4-methylphenyl)-2-methoxyethyl)(2,2-dimethylpropyl)carbamoyl)-5-(trifluoromethyl)-1H-pyrazol-1-yl)cyclohexanecarboxylic acid]	51.3
C[C@]1(C(=O)O)CC[C@H](n2ncc(C(=O)N(CC(=O)c3c(F)cccc3Cl)CC3(F)CCCC3)c2C(F)(F)F)CC1 [Example 643, trans-4-(4-((2-(2-chloro-6-fluorophenyl)-2-oxoethyl)((1-fluorocyclopentyl)methyl)carbamoyl)-5-(trifluoromethyl)-1H-pyrazol-1-yl)-1-methylcyclohexanecarboxylic acid]	4.27
COc1cccc(F)c1C(=O)CN(CC1CC(C)(C)C1)C(=O)c1cnn([C@H]2CC[C@](C)(C(=O)O)CC2)c1C(F)(F)F [Example 602, trans-4-(4-(((3,3-dimethylcyclobutyl)methyl)(2-(2-fluoro-6-methoxyphenyl)-2-oxoethyl)carbamoyl)-5-(trifluoromethyl)-1H-pyrazol-1-yl)-1-methylcyclohexanecarboxylic acid]	174
CC1(C)CC[C@H](CN(CC(=O)c2c(Cl)cccc2Cl)C(=O)c2cnn([C@H]3CC[C@](C)(C(=O)O)CC3)c2C(F)(F)F)O1 [Example 821, trans-4-(4-((2-(2,6-dichlorophenyl)-2-oxoethyl)(((2R)-5,5-dimethyltetrahydro-2-furanyl)methyl)carbamoyl)-5-(trifluoromethyl)-1H-pyrazol-1-yl)-1-methylcyclohexanecarboxylic acid]	9.77
C[C@]1(C(=O)O)CC[C@H](n2ncc(C(=O)N(CC(=O)c3c(Cl)cccc3Cl)[C@H]3CCC34CCCC4)c2C(F)(F)F)CC1 [Example 649, trans-4-(4-((2-(2,6-dichlorophenyl)-2-oxoethyl)((1S)-spiro[3.4]oct-1-yl)carbamoyl)-5-(trifluoromethyl)-1H-pyrazol-1-yl)-1-methylcyclohexanecarboxylic acid]	1.82
C[C@]12CC[C@](CN(CC(=O)c3c(Cl)cccc3Cl)C(=O)c3cnn([C@H]4CC[C@@H](C(=O)O)CC4)c3C(F)(F)F)(CC1)C2 [Example 615, cis-4-(4-((2-(2,6-dichlorophenyl)-2-oxoethyl)(((1r,4r)-4-methylbicyclo[2.2.1]hept-1-yl)methyl)carbamoyl)-5-(trifluoromethyl)-1H-pyrazol-1-yl)cyclohexanecarboxylic acid]	49
CC1(CN(CCc2c(Cl)cncc2Cl)C(=O)c2cnn([C@H]3CC[C@H](C(=O)O)CC3)c2C(F)(F)F)CCCC1 [Example 557, trans-4-(4-((2-(3,5-dichloro-4-pyridinyl)ethyl)((1-methylcyclopentyl)methyl)carbamoyl)-5-(trifluoromethyl)-1H-pyrazol-1-yl)cyclohexanecarboxylic acid]	2.82
CC1(CN(CC(=O)c2c(Cl)cncc2Cl)C(=O)c2cnn([C@H]3CC[C@](C)(C(=O)O)CC3)c2C(F)(F)F)CC1 [Example 577, trans-4-(4-((2-(3,5-dichloro-4-pyridinyl)-2-oxoethyl)((1-methylcyclopropyl)methyl)carbamoyl)-5-(trifluoromethyl)-1H-pyrazol-1-yl)-1-methylcyclohexanecarboxylic acid]	11.7
